{"source": "patent US20130052143A1", "about": "“LIQUID PREPARATION FOR ORAL ADMINISTRATION TO BE USED IN CT COLONOGRAPHY, AND COMPOSITION FOR DIGESTIVE TRACT IMAGING” (Ajinomoto Co., Inc., priority 2010, published 2013)", "conditions": "in vivo", "description": "In the insufflation to inflate the intestinal tract, a carbon dioxide gas (CO2) was supplied by using a hand operated double balloon pump through the transanal route. […] No anticonvulsive agent was used.\nThe procedure of the imaging was such that: firstly, the posture of the examinee was set to the left lateral decubitus position; a tube for insufflation was inserted; and a gas was supplied to confirm that smooth insufflation was possible. Next, the posture of the examinee was set to the abdominal position; the insufflation was conducted until the examinee had claimed a strong feeling of fullness or the pressure inside the intestinal tract had reached 25 mmHg; scanography was performed to confirm that the large intestine had been sufficiently inflated; and thereafter the CT image was taken. After taking the image of the abdominal position, the posture of the examinee was set to the dorsal position, and scanography was again performed to take the CT image in the dorsal position. At this time, if the inflation of the large intestine had been insufficient, additional insufflation was conducted. After the completion of the CT image taking, colon endoscopy was conducted to see the circumstances of the residual feces and residual liquid in the large intestine by eye. The CT image was taken under the charge of a clinical X-ray technician.", "data": [{"smiles": "O=C=O", "note": "[CO2, carbon dioxide gas]", "values": [{"measurement": "examinees who felt abdominal pains", "value": 50.0, "unit": "%"}]}]}
